Experiments:
[1] = oral rinses of WO/2014/092999; cited from earlier work
P. aeruginosa = assay: Example 9: phenoxyethanol, PCMX, pine oil compositions diluted 1:20, albumin, 15 seconds (Table 3); format: cell-based; conditions: PXE stock 10.0% w/w, 0.5% w/w in 1 to 20 dilution
Experimental: Phenoxyethanol, PCMX and pine oil were added to 50% isopropanol in the amounts described in table 3 below (water was added to bring the total weight % of the composition 100%). The compositions described by table 3 were prepared and diluted 1:20 with water and tested using the following method. P. aeruginosa was used as the test organism (10^8 cfu/ml). 0.1 ml culture was added to 0.1 ml of a 3.0% albumin solution, mixed for 5 seconds and left for 2 minutes at room temperature. 0.8 ml of test sample was added and the tube was vortexed for 15 seconds. Serial dilutions were made with Drug Neutralizing Fluid and aliquots were plated on Trypticase soy broth agar plates. The plates were incubated for 24-48 hours and colony counts were then determined.

S. aureus = assay: Method B: surface disinfectant base solution diluted 1:20, 1 minute (Table 8); format: cell-based; conditions: stock solution in surface disinfectant base diluted 1:20, 1 minute (Method B)

Molecule	synergistic activity with thymol and vanilla extract [1]	also measured
[H]/N=C(\N/C(=N/[H])NCCCCCCNC(=N)NC(=N)Nc1ccc(Cl)cc1)Nc1ccc(Cl)cc1 [chlorhexidine]	did not show significant synergistic activity	
OCCOc1ccccc1 [PXE]		Log reduction from control (P. aeruginosa): 0.6 log
Cc1cc(O)cc(C)c1Cl [PCMX]		log reduction from control growth (S. aureus): 0.5 log
polyhexamethylene biguanide [PHMB]	synergistic activity	
